# Results published in ChEMBL document CHEMBL5346878, “SAR study of piperidine derivatives as inhibitors of 1,4-dihydroxy-2-naphthoate isoprenyltransferase (MenA) from Mycobacterium tuberculosis” (Eur J Med Chem, 2023).
# pIC50: −log10 of the molar value. Active and inactive are the calls of the source. The calls are words filed in the database; no cut-off is given here.
# Columns and labels:
# [1] = tested on: Mycobacterium tuberculosis; experiment: Antibacterial activity against Mycobacterium tuberculosis mc2 6230 assessed as bacterial growth inhibition incubated for 5 days by absorbance based assay; type: functional, organism-based; details: mc2 6230, 120 h; for GI50: time 5 day
# [2] = target: T1, 1,4-dihydroxy-2-naphthoate octaprenyltransferase (Mycobacterium tuberculosis, UniProt P9WIP3); experiment: Displacement of [3H]FPP from Mycobacterium tuberculosis mc2 6230 membrane protein MenA incubated for 30 mins by liquid scintillation spectrometry; type: cell membranes; details: for pIC50: read-out: IC50
# T1 sequence (P9WIP3 whole entry): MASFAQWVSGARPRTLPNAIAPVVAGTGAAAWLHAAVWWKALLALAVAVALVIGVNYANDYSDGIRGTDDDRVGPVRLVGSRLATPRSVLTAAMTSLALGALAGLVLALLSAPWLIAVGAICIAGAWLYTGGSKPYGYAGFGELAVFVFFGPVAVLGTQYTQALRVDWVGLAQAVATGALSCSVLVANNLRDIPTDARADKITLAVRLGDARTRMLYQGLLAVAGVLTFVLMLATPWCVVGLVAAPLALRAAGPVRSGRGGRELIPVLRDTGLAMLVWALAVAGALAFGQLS
# [3] = tested on: Mycobacterium tuberculosis; experiment: Displacement of 14C-SAM from Mycobacterium tuberculosis membrane MenG assessed as reduction in MK8 synthesis at 12.5 uM incubated for 1 hr by liquid scintillation counting method; type: cell membranes
# [4] = tested on: Mycobacterium tuberculosis; experiment: Antibacterial activity against Mycobacterium tuberculosis H37Rv (ATCC 27294) assessed as bacterial growth inhibition incubated for 7 days by microdilution alamarBlue assay; type: functional; details: 168 h, time 7 day
# [5] = tested on: Mycobacterium tuberculosis; experiment: Antibacterial activity against Mycobacterium tuberculosis assessed as bacterial growth inhibition; type: functional
# [6] = tested on: Mycobacterium tuberculosis; experiment: Synergistic bactericidal activity against Mycobacterium tuberculosis H37RvLP (ATCC 25618) assessed as fold increase in activity upto 100 uM in presence of CPZ; type: functional
# [7] = tested on: Mycobacterium tuberculosis; experiment: Bactericidal activity against Mycobacterium tuberculosis H37RvLP (ATCC 25618) at 50 to 100 uM; type: functional, organism-based; details: dose 50-100 µM
# [8] = tested on: Mycobacterium tuberculosis; experiment: Synergistic bactericidal activity against Mycobacterium tuberculosis H37RvLP (ATCC 25618) at 25 uM in presence of Q203; type: functional, organism-based
# [9] = tested on: Mycobacterium tuberculosis; experiment: Synergistic bactericidal activity against Mycobacterium tuberculosis H37RvLP (ATCC 25618) incubated for 14 days in presence of CPZ relative to control; type: functional; details: time 14 day
# [10] = tested on: Mycobacterium tuberculosis; experiment: Synergistic bactericidal activity against Mycobacterium tuberculosis H37RvLP (ATCC 25618) at 25 uM in presence of IMP; type: functional, organism-based
# [11] = tested on: Mycobacterium tuberculosis; experiment: Synergistic bactericidal activity against Mycobacterium tuberculosis H37RvLP (ATCC 25618) assessed as fold increase in activity at <12.5 uM in presence of IMP; type: functional
Compound,GI50 [1] [µM],pIC50 [2],also measured
CCCN(C)c1ccc(CN2CCC(COc3c(F)cccc3F)CC2)cc1,28,4.60,–
CCCN(C)c1ccc(CN2CCCC(Oc3cccc(Oc4ccccc4)c3)C2)cc1 (stereo unspecified),37,4.62,–
CCCN(C)c1ccc(CN2CCC3(CC2)CC(Oc2ccc(Cl)cc2)CO3)cc1 (stereo unspecified),25,< 4.30,–
CCCN(C)c1ccc(CN2CCC(COc3cccc(C(=O)N4CCOCC4)c3)CC2)cc1,> 215,–,IC50 [2]: Not Active
COc1ccc(-c2cc(NC(=O)c3ccc(Cl)cc3F)ccc2OC)cc1,–,–,inhibition [3]: Active; MIC90 [4]: 4.8 µg/mL
CCCN(C)c1ccc(CN2CCC(COc3nc4ccc(F)cc4s3)CC2)cc1,–,4.51,pIC50 [1]: 4.96
CCCN(C)c1ccc(CN2CCC(COc3noc4ccccc34)CC2)cc1,–,–,inhibition [3]: inactive
CCCN(C)c1ccc(CN2CCC(COc3ccc(F)cc3)CC2)cc1,14,4.48,–
CCCN(C)c1ccc(CN2CCC(CSc3ccccc3)CC2)cc1,–,4.74,–
CCCN(C)c1ccc(CN2C[C@@H]3C[C@H]2CN3Cc2ccc(N3CCOCC3)cc2)cc1,149,< 4.30,–
COc1ccc2ccc(OCCCCCCCCN3CCCCC3)cc2c1,–,–,MIC [5]: 8.1 µM
CCCN(C)c1ccc(CN2CCC(COc3ccc(Br)cc3)CC2)cc1,11,4.92,–
CCCN(C)c1ccc(CN2CCC(CSc3ccccc3C(=O)OC)CC2)cc1,–,–,inhibition [3]: inactive
CCCN(C)c1ccc(CN2CCC(COc3ccc4ccccc4c3)CC2)cc1,7,4.68,–
COc1ccc2ccc(OCCCCCCCCNCCc3ccc(F)cc3)cc2c1,–,–,MIC [5]: < 14.2 µM
CCCN(C)c1ccc(CN2CCC(COc3ccccc3F)CC2)cc1,35,4.74,–
CCCN(C)c1ccc(CN2CCC(COc3cccc(C(=O)c4ccc(Cl)cc4)c3)CC2)cc1,8,4.85,–

Compound,GI50 [1] [µM],pIC50 [2],also measured
CCCN(C)c1ccc(CN2CCC(COc3ccc(OC)cc3)CC2)cc1,18,–,inhibition [3]: inactive
C=CCN(C)CCCCCCCCOc1ccc2ccc(OC)cc2c1,–,–,MIC [5]: 8.4 µM
CCCN(C)c1ccc(CN2CCC(COc3ccc(Cl)cc3Cl)CC2)cc1,13,–,–
CCCN(C)c1ccc(CN2CCC(COc3ccc(Cl)cc3)CC2)cc1,10,4.66,fold change (FC) [6]: 1; Activity [7]: Active; inhibition [3]: inactive; Activity [8]: Active; inhibition (INH) [9]: 100%; Activity [10]: Active
CCCN(C)c1ccc(CN2CCC(COc3cc(=O)n(C)c4ccccc34)CC2)cc1,11,3.99,–
CCCN(C)c1ccc(CN2CCC(COc3ccccc3Cl)CC2)cc1,39,4.51,–
CCCN(C)c1ccc(CN2CCC(COc3cccc(Oc4ccccc4)c3)CC2)cc1,8,4.89,fold change (FC) [11]: >3; fold change (FC) [6]: 1; Activity [7]: Active; inhibition [3]: inactive; inhibition (INH) [9]: 100%
c1ccc(Oc2cccc(OCC3CCN(Cc4ccc(N5CCOCC5)cc4)CC3)c2)cc1,21,–,inhibition [3]: inactive
CCCN(C)c1ccc(CN2CCC(COc3cccc(Cc4ccc(Cl)cc4)c3)CC2)cc1,> 226,4.26,–
CCCN(C)c1ccc(CN2CCC(COc3cccc(Br)c3)CC2)cc1,14,4.92,inhibition [3]: inactive
CCCN(C)c1ccc(CN2CCC(COC3[C@H]4C[C@@H]5C[C@@H](C[C@H]3C5)C4)CC2)cc1 (stereo partly specified),6,4.64,–
CCCN(C)c1ccc(CN2CCC(COc3ccccc3)CC2)cc1,27,4.19,–
CCCN(C)c1ccc(CN2CCC(COc3ccc(C)cn3)CC2)cc1,31,< 4.30,–
CCCN(C)c1ccc(CN2[C@@H]3CC[C@H]2CC(Oc2cccc(Oc4ccccc4)c2)C3)cc1 (stereo partly specified),17,4.57,–
CCCN(C)c1ccc(CN2CCC3(CC2)CC(Oc2cccc(Oc4ccccc4)c2)CO3)cc1 (stereo unspecified),9,–,–
CCCN(C)c1ccc(CN2CCC(COc3cccc(Nc4ccccc4C)c3)CC2)cc1,16,4.66,inhibition [3]: inactive
